Data reported in ChEMBL document CHEMBL1777732 (Bioorg Med Chem Lett, 2011).
Calls of active or inactive are those of the source. The rule behind the calls is not given here.

Legend:
[1] = target: T1, Metabotropic glutamate receptor 5 (Homo sapiens, UniProt P41594); assay: Positive allosteric modulation of human mGluR5 expressed in HEK293 cells assessed as increase of L-glutamate-induced calcium mobilization by FLIPR assay; assay type: functional, cell-based
Target sequence in this assay (P41594 whole entry): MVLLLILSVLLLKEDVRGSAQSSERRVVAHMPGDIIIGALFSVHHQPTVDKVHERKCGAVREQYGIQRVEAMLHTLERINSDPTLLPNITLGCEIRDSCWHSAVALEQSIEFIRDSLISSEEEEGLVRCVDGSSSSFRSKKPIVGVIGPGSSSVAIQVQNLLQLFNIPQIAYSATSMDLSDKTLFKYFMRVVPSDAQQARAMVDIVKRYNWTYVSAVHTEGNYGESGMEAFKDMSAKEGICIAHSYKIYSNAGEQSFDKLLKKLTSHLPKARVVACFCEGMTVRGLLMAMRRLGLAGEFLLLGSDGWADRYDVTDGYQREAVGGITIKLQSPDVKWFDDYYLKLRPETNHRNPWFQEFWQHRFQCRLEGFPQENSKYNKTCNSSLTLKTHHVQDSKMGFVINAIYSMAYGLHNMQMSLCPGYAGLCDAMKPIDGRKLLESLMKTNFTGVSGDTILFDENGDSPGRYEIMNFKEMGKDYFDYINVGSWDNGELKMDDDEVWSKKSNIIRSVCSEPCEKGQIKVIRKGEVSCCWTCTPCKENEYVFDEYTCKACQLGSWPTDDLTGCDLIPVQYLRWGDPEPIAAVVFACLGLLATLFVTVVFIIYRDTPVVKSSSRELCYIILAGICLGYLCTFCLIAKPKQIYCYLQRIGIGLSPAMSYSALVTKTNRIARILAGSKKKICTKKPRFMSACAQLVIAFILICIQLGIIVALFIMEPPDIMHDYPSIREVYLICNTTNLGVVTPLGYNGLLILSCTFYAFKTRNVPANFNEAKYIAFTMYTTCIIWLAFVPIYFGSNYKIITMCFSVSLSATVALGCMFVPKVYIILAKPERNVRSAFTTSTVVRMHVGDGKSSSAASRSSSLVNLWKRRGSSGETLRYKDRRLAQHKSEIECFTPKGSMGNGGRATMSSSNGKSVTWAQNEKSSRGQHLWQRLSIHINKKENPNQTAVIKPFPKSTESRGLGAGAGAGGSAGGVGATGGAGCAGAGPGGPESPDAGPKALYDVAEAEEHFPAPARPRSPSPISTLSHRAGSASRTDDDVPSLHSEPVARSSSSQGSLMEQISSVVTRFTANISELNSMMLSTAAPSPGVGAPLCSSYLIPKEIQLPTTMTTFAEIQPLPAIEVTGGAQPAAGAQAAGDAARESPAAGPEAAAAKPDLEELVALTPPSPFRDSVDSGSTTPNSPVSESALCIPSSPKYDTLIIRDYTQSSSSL

[2] = target: T1, Metabotropic glutamate receptor 5; assay: Positive allosteric modulation of human mGluR5 expressed in HEK293 cells assessed as increase of L-glutamate-induced calcium mobilization at 10 uM by FLIPR assay relative to L-glutamate; assay type: functional, cell-based
Target sequence in this assay (P41594 21-1212 limits assumed): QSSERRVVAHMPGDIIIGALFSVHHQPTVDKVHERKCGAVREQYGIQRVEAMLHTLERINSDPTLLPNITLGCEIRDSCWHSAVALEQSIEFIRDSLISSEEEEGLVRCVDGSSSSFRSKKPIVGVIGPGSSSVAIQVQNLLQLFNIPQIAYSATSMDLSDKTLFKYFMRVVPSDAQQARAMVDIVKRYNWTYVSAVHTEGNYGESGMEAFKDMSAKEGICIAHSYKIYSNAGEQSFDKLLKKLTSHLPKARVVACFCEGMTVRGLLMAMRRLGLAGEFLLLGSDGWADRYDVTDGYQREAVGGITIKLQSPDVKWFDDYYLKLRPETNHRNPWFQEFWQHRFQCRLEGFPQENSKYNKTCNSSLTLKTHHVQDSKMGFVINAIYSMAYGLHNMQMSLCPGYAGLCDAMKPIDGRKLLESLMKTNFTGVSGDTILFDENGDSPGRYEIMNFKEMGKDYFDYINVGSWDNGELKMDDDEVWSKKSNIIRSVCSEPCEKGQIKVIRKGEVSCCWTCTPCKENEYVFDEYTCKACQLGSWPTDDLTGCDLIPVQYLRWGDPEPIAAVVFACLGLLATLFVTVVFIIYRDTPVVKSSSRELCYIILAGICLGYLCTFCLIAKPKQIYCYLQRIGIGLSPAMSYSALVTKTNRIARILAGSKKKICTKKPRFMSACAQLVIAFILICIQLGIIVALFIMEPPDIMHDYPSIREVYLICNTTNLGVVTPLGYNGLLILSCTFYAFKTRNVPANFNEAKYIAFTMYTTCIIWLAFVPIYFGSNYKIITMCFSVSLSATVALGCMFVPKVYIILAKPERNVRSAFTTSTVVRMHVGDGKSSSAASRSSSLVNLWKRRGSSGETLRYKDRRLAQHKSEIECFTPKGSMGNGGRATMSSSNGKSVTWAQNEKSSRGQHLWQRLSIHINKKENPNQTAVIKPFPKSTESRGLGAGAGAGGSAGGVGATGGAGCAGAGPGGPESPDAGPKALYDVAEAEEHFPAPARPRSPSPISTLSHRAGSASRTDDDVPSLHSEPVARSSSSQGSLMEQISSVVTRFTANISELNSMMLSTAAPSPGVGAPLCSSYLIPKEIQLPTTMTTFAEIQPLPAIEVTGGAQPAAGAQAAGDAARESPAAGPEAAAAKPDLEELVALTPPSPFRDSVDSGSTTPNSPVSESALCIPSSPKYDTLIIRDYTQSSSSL

[3] = target: T1, Metabotropic glutamate receptor 5; assay: Displacement of [3H]-MPEP from human mGluR5 expressed in HEK293 cells after 2 hrs; assay type: cell-based
Target sequence in this assay (P41594 whole entry): as the sequence (P41594 whole entry) above

[4] = target: T1, Metabotropic glutamate receptor 5; assay: Negative allosteric modulation of human mGluR5 expressed in HEK293 cells assessed as inhibition of L-glutamate-induced calcium mobilization by FLIPR assay; assay type: functional, cell-based
Target sequence in this assay (P41594 whole entry): as above

[5] = target: T1, Metabotropic glutamate receptor 5; assay: Negative allosteric modulation of human mGluR5 expressed in HEK293 cells assessed as inhibition of L-glutamate-induced calcium mobilization at 10 uM by FLIPR assay relative to control; assay type: functional, cell-based
Target sequence in this assay (P41594 21-1212 limits assumed): as the sequence (P41594 21-1212 limits assumed) above

SMILES	EC50 ([1]; read-out: EC50) [nM]	Emax [2]	Ki [3] [nM]	IC50 ([4]; read-out: IC50) [nM]	Imax [5]	EC50 ([1]; hek293)	IC50 ([4]; hek293)
Cc1ccccc1C#Cc1ccc2c(n1)CCN(C1CCCCC1)C2=O	466	62%	> 32000				
Cc1ccccc1C#Cc1ccc2c(n1)CCN(C)C2=O			> 32000	776	80%		
CNC(=O)c1ccc(C#Cc2ccccc2)nc1			15000				
O=C1c2ccc(C#Cc3cccs3)nc2CCN1C1CCCC1	12	103%	2840				
COc1cccc(C#Cc2ccc3c(n2)CCN(C)C3=O)c1			3660	293	88%		
CN1CCc2nc(C#Cc3ccccc3)ccc2C1=O			760	30	58%		
O=C1c2ccc(C#Cc3cccnc3)nc2CCN1C1CCCC1	748	68%	> 32000				
CC(C)N1CCc2nc(C#Cc3ccccc3Cl)ccc2C1=O			5680	2520	61%		
CN1CCc2nc(C#Cc3ccccc3Cl)ccc2C1=O			7900	916	70%		
O=C1c2ccc(C#Cc3ccccc3)nc2CCN1C1CCCCC1	40	122%	12400				
Cc1cccc(C#Cc2ccc3c(n2)CCN(C2CCCC2)C3=O)c1	7.5	97%	670				
CC(C)N1CCc2nc(C#Cc3cccs3)ccc2C1=O			1930	45	78%		
Cc1ccc(C#Cc2ccc3c(n2)CCN(C(C)C)C3=O)cc1	1010	28%	20200				
CN1CCc2nc(C#Cc3ccc(Cl)cc3)ccc2C1=O			6150	352	73%		
Cc1ccccc1C#Cc1ccc2c(n1)CCN(C(C)C)C2=O			> 32000	810	76%		
O=C1c2ccc(C#Cc3ccccc3Cl)nc2CCN1C1CCCC1	393	115%	> 32000				
Cc1ccccc1C#Cc1ccc2c(n1)CCN(C1CCCC1)C2=O	239	107%	18800				
CC(C)N1CCc2nc(C#Cc3cccnc3)ccc2C1=O			19600			Not Active	Not Active
O=C1c2ccc(C#Cc3ccccc3Cl)nc2CCN1C1CCCCC1	924	68%	> 32000				
O=C1c2ccc(C#Cc3ccccn3)nc2CCN1C1CCCC1			1770	199	80%		
CC(C)N1CCc2nc(C#Cc3ccccn3)ccc2C1=O			2740	27	89%		
O=C1c2ccc(C#Cc3ccccc3)nc2CCN1C1CCCC1	5.9	109%	890				
CN1CCc2nc(C#Cc3cccs3)ccc2C1=O			2170	451	49%		
CC(C)NC(=O)c1ccc(C#Cc2ccccc2)nc1	62	61%	7100				
O=C1c2ccc(C#Cc3ccccn3)nc2CCN1C1CCCCC1			2240	518	74%		

SMILES	EC50 ([1]; read-out: EC50) [nM]	Emax [2]	Ki [3] [nM]	IC50 ([4]; read-out: IC50) [nM]	Imax [5]	EC50 ([1]; hek293)	IC50 ([4]; hek293)
CN1CCc2nc(C#Cc3cccc(Cl)c3)ccc2C1=O			250	22	84%		
CN1CCc2nc(C#Cc3cccnc3)ccc2C1=O			27400			Not Active	Not Active
Cc1cccc(C#Cc2ccc3c(n2)CCN(C(C)C)C3=O)c1			510	4.8	88%		
COc1cccc(C#Cc2ccc3c(n2)CCN(C2CCCCC2)C3=O)c1			23200				
COc1cccc(C#Cc2ccc3c(n2)CCN(C2CCCC2)C3=O)c1	462	25%	> 32000				
CN1CCc2nc(C#Cc3ccccn3)ccc2C1=O			6240	184	92%		
COc1cccc(C#Cc2ccc3c(n2)CCN(C(C)C)C3=O)c1			2950	111	88%		
Cc1cccc(C#Cc2ccc3c(n2)CCN(C2CCCCC2)C3=O)c1	36	54%	3210				
O=C(NC1CCCC1)c1ccc(C#Cc2ccccn2)nc1			7600	227	90%		
O=C1c2ccc(C#Cc3cccc(Cl)c3)nc2CCN1C1CCCCC1	171	47%	12000				
O=C(NC1CCCC1)c1ccc(C#Cc2ccccc2)nc1	19	106%	3300				
Cc1cccc(C#Cc2ccc3c(n2)CCN(C)C3=O)c1			820	2.9	86%		
CC(C)N1CCc2nc(C#Cc3cccc(Cl)c3)ccc2C1=O			100	5.7	86%		
Cc1ccc(C#Cc2ccc3c(n2)CCN(C2CCCCC2)C3=O)cc1			27200				
Cc1ccc(C#Cc2ccc3c(n2)CCN(C2CCCC2)C3=O)cc1	4820	97%	> 32000				
O=C1c2ccc(C#Cc3cccnc3)nc2CCN1C1CCCCC1	387	73%	15600				
Cc1ccc(C#Cc2ccc3c(n2)CCN(C)C3=O)cc1			7450	1400	68%		
CC(C)N1CCc2nc(C#Cc3ccc(Cl)cc3)ccc2C1=O			27100	4230	61%		
O=C1c2ccc(C#Cc3ccc(Cl)cc3)nc2CCN1C1CCCC1	979	98%	> 32000				
O=C1c2ccc(C#Cc3cccs3)nc2CCN1C1CCCCC1	13	112%	720				
CC(C)N1CCc2nc(C#Cc3ccccc3)ccc2C1=O			1280	706	60%		
O=C1c2ccc(C#Cc3cccc(Cl)c3)nc2CCN1C1CCCC1	33	87%	5230				
O=C(NC1CCCC1)c1ccc(C#Cc2cccnc2)nc1	> 10000	68%	> 32000				
O=C1c2ccc(C#Cc3ccc(Cl)cc3)nc2CCN1C1CCCCC1		inactive	> 32000		inactive	Not Active	Not Active
